Measurements taken from US6737410B1, “Inhibitors of protein farnesyl transferase” (Warner-Lambert Company, priority 1997, dated 2004).
Like-named read-outs stand apart in the source and are kept apart here.

Assays:
[1] = test system: ras protein farnesylation in ras-transformed cells (H-ras-transformed HIH 3T3 cells); experiment: Gel shift assay (inhibition of ras farnesylation in cells); assay type: cell-based; settings: for Gel Shift (μM) M.E.D* (minimal effective dose to observe inhibition of ras farnesylation): ras-transformed cells, 18-hour incubation
Protocol: Twenty-four hours after planting 2×10^6 ras-transformed cells per treatment condition, the farnesylation inhibitor is added at varying concentrations. Following an 18-hour incubation period, cells are lysed in phosphate-buffered saline containing 1% Triton X-100, 0.5% sodium deoxycholate, and 0.1% SDS (sodium dodecyl sulfate), pH 7.4 in the presence of several protease inhibitors (PMSF (phenylmethylsulfonylfluoride), antipain, leupeptin, pepstatin A, and aprotinin all at 1 μg/mL). Ras protein is immunoprecipitated from the supernatants by the addition of 3 μg v-H-ras Ab-2 (Y13-259 antibody from Oncogene Science). After overnight immunoprecipitation, 30 μL of a 50% protein G-Sepharose slurry (Pharmacia) is added followed by 45-minute incubation. Pellets are resuspended in 2×tris-glycine loading buffer (Novex) containing 5% β-mercaptoethanol and then denatured by 5 minutes boiling prior to electrophoresis on 14% Tris-glycine SDS gels. Using Western transfer techniques, proteins are transferred to nitrocellulose membranes followed by blocking in blocking buffer. Upon overnight incubation with primary antibody (pan-ras Ab-2 from Oncogene Science), an antimouse HRP (horse radish peroxidase) conjugate secondary antibody (Amersham) is employed for detection of the ras protein. Blots are developed using ECL(enhanced chemiluminescence) techniques (Amersham).

[2] = test system: H61 cells: N1H transformed 3T3 H-ras cells; experiment: Clonogenic assay (soft agar, 6 well plates); assay type: cell-based; settings: H-ras transformed NIH 3T3 cells, colonies counted after Day 13, read-out: Soft Agar IC50 (μM), inhibition of colony formation
Protocol: Clonogenic Assay (6 Well Plates)
Sometime previous to setting up an actual test:
1. Make up 1.5% Bacto Agar in Milli-Q water and autoclave.
2. Make up 500 mL 2×DMEM-HG without phenol red by combining the following:
1 bottle DMEM base powder (Sigma D-5030)
Adjust pH to 7.1 with HCl; filter sterilize.
1. Set up makeshift water bath (beaker of water with thermometer, on hot plate) in the hood. Keep water temperature between 37° C. to 43° C.
2. […] 1.5% Bacto Agar for approximately 2 minutes on high, or until completely melted. Then let it cool somewhat before using it. (You can keep it from resolidifying by setting the bottle on the hot plate.)
Depending on the volume of each layer needed, use either 50 mL conical tubes or 200 mL turnip tubes which can be floated in the “water bath”.
4. Add 1 mL of bottom layer agar/medium to each well: deliver 1 mL warm agar/medium to a well; then using the tip of the pipet, spread the agar/medium around to completely cover the bottom. Repeat with next well.
5. Allow the plates to set at room temperature for about 5 minutes until the bottom layer solidifies.
6. Label sterile Falcon 2054 (12×75 mm) tubes and add appropriate volume of drug solutions into them.
7. Aliquot 4 μL of DMSO or drug solution per 1 mL of agar/medium to appropriate tubes; then add the agar/medium/cells to each tube. Always add 1 mL more than will actually be needed. Mix up and down in the pipet (gently); then deliver 1 mL to the center of each well. The upper layer is less viscous, so it will generally spread out over the bottom layer unaided. If necessary, rotate the plane of the plate gently to spread the top layer evenly over the bottom layer.
8. Let plates set for 5 or 10 minutes at room temperature to solidify, then put into 5% CO2, 37° C. incubator.
9. On Day 13, add 0.5 mL of INT (tetrazolium 1 mg/mL in Milli-Q H2O, filter sterilized) and return plates to incubator.

[3] = biological target: T1, SF9 affinity purified rat farnesyl protein transferase (Rattus norvegicus, UniProt Q02293+Q04631); experiment: PFT (farnesyl protein transferase) inhibitory activity assay; assay type: biochemical
T1 construct: made in house; host or cells: Sf9 insect cells
Protocol: The protein:farnesyl transferase (PFT) or farnesyl protein transferase (FPT) inhibitory activity of compounds of the present invention were assayed in HEPES buffer (pH 7.4) containing 5 mM potassium phosphate and 20 μM ZnCl2. The solution also contained 5 mM DTT (dithiothreitol), 5 mM MgCl2, and 0.1% PEG 8000. Assays were performed in 96-well plates (Wallec) and employed solutions composed of varying concentrations of a compound of the present invention in 100% DMSO (dimethylsulfoxide). Upon addition of both substrates, radiolabeled farnesyl pyrophosphate ([1^3H], specific activity 15 to 30 Ci/mmol, final concentration 134 nM) and (biotinyl)-Ahe-Thr-Lys-Cys-Val-Ile-Met ([3aS[3a alpha, 4 beta, 6a alpha]-hexahydro-2-oxo-1H-thieno[3,4-d]imidazole-5-pentanoic acid]-[7-aminoheptanoic acid]-Thr-Lys-Cys-Val-Ile-Met) (Ahe is 7-amino-heptanoic acid, Thr is threonine, Lys is lysine, Cys is cysteine, Val is valine, Ile is isoleucine and Met is methionine) (final concentration 0.2 μM), the enzyme reaction was started by addition of SF9 affinity purified rat farnesyl protein transferase. After incubation at 30° C. for 30 minutes, the reaction was terminated by diluting the reaction 2.5-fold with a stop buffer containing 1.5 M magnesium acetate, 0.2 M H3PO4, 0.5% BSA (bovine serum albumin), and strepavidin beads (Amersham) at a concentration of 1.3 mg/mL. After allowing the plate to settle for 30 minutes at room temperature, radioactivity was quantitated on a microBeta counter (Model 1450, Wallec). The assay was also carried out without 5 mM potassium phosphate.

[4] = test system: human lung carcinoma with K-ras mutation and p53 deletion; settings: nude mice; cited from earlier work
[5] = test system: EJ-1 human bladder carcinoma, HT1080 human fibrosarcoma, and human colon carcinoma xenografts; settings: 100 mg/kg, nude mice; cited from earlier work
[6] = test system: mammary and salivary carcinomas; settings: daily administration, ras transgenic mice; cited from earlier work
[7] = HEPES buffer pH 7.4, without 5 mM potassium phosphate, read-out: IC50 (μM) Hepes
[8] = HEPES buffer pH 7.4 containing 5 mM potassium phosphate, read-out: IC50 (μM) 5 mM PO4•^2 Hepes
[9] = Example 2 compared with Example 1

IC50 [3, 7] [µM] | IC50 [3, 8] [µM] | Compound | Gel Shift (μM) M.E.D* (minimal effective dose to observe inhibition of ras farnesylation) [1] | other results
0.31 | 0.007 | CN(C(=O)[C@H](Cc1c[nH]cn1)NC(=O)OCc1ccccc1)[C@@H](Cc1ccc(OCc2ccccc2)cc1)C(=O)NCC(C)(C)c1ccccc1 [Example 3, [S-(R*,R*)]-[1-{[2-(4-Benzyloxy-phenyl)-1-(2-methyl-2-phenyl-propylcarbamoyl)-ethyl]-methyl-carbamoyl}-2-(1H-imidazol-4-yl)-ethyl]-carbamic acid benzyl ester] | 0.05 µM | IC50 ([2]; Mus musculus, NIH3T3, 312 h): 0.1 µM
 |  | CSCC[C@H](NC(=O)c1ccc(NC[C@@H](N)CS)cc1-c1ccccc1)C(=O)O [FT1276] |  | tumor growth of human lung carcinoma [4]: selectively block tumor growth
 |  | COC(=O)[C@H](CCSC)NC(=O)[C@H](/C=C\[C@@H](/C=C/[C@@H](N)CS)C(C)C)Cc1ccccc1 [Example B1086] |  | tumor growth by xenografts [5]: inhibit tumor growth
0.26 | 0.005 | CN(C(=O)[C@H](Cc1cnc[nH]1)NC(=O)OCc1ccccc1)[C@@H](Cc1ccccc1)C(=O)NCC(C)(C)c1ccccc1 [Example 7, [S-(R*,R*)]-(2-(3H-Imidazol-4-yl)-1-{methyl-[1-(2-methyl-2-phenyl-propyl-carbamoyl)-2-phenyl-ethyl]-carbamoyl}-ethyl)-carbamic acid benzyl ester] | ≦0.05 μM | 
0.38 | 0.006 | CN(C(=O)[C@H](Cc1c[nH]cn1)NC(=O)OCc1ccccc1)[C@@H](Cc1ccc(OCc2ccccn2)cc1)C(=O)NCC(C)(C)c1ccccc1 [Example 4, [S-(R*,R*)]-[2-(1H-Imidazol-4-yl)-1-(methyl-{1-(2-methyl-2-phenyl-propylcarbamoyl)-2-[4-(pyridin-2-ylmethoxy)-phenyl]-ethyl}-carbamoyl)-ethyl]-carbamic acid benzyl ester] | ≦0.05 μM | 
1.76 | 0.01 | CC(C)C[C@@H](C(=O)NCC(C)(C)c1ccccc1)N(C)C(=O)[C@H](Cc1cnc[nH]1)NC(=O)OCc1ccccc1 [Example 8, [S-(R*,R*)]-(2-(3H-Imidazol-4-yl)-1-{methyl-[3-methyl-1-(2-methyl-2-phenyl-propylcarbamoyl)-butyl]-carbamoyl}-ethyl)-carbamic acid benzyl ester] | ≦0.05 μM | 
0.012 | 0.008 | CN(Cc1ccccc1)C(=O)N[C@@H](Cc1c[nH]cn1)C(=O)N(C)[C@@H](Cc1ccc(OCc2ccccc2)cc1)C(=O)NCC(C)(C)c1ccccc1 [Example 5, [S-(R*,R*)]-2(3-Benzyl-3-methyl-ureido)-N-[2-(4-benzyloxy-phenyl)-1-(2-methyl-2-phenyl-propyl-carbamoyl)-ethyl]-3-(1H-imidazol-4-yl)-N-methyl-propionamide] | ≦0.05 μM | 
 |  | CC[C@H](C)[C@@H](CO[C@@H](Cc1ccccc1)C(=O)N[C@@H](CCS(C)(=O)=O)C(=O)OC(C)C)NC[C@@H](N)CS [L744,832] |  | effect on mammary and salivary carcinomas [6]: tumor regression

Compound | IC50 [3, 7] [µM] | IC50 [3, 8] [µM] | Gel Shift (μM) M.E.D* (minimal effective dose to observe inhibition of ras farnesylation) [1] | other results
CN(C(=O)[C@@H](Cc1c[nH]cn1)NC(=O)OCc1ccccc1)[C@@H](Cc1ccc(OCc2ccccc2)cc1)C(=O)NCCOCc1ccccc1 (relative stereo) [Example 1, [R-(R*,S*)]-[1-{[1-(2-Benzyloxy-ethylcarbamoyl)-2-(4-benzyloxy-phenyl)-ethyl]-methyl-carbamoyl}-2-(1H-imidazol-4-yl)-ethyl]-carbamic acid benzyl ester] | 7 | 0.4 | 1 µM | IC50 [2]: 15.1 µM; activity as a ras farnesyl transferase inhibitor ([3]; stated in words): submicromolar
CN(C(=O)[C@H](Cc1c[nH]cn1)NC(=O)OCc1ccccc1)[C@@H](Cc1ccc(OCc2ccccc2)cc1)C(=O)NCCc1ccccc1 (relative stereo) [Example 2, [S-(R*,R*)]-[1-{[2-(4-Benzyloxy-phenyl)-1-phenethylcarbamoyl-ethyl]-methyl-carbamoyl}-2-(1H-imidazol-4-yl)-ethyl]-carbamic acid benzyl ester] | 1.4 | 0.032 | 0.2 µM | increase in cellular activity [1, 9]: 5 fold; IC50 [2]: 0.58 µM; increase in activity against the enzyme [3, 9]: 10 fold
CN(C(=O)[C@H](Cc1cnc[nH]1)NC(=O)OCc1ccccc1)[C@@H](Cc1ccc(OCc2ccccc2)cc1)C(=O)NCC1(c2ccccc2)CCC1 (relative stereo) [Example 6, [S-(R*,R*)]-[1-{[2-4-Benzyloxy-phenyl)-1-[(1-phenyl-cyclobutylmethyl)-carbamoyl]-ethyl}-methyl-carbamoyl)-2-(3H-imidazol-4-yl)-ethyl]-carbamic acid benzyl ester] | 1.01 | 0.013 | ≦0.05 μM | 
